The values below come from EP3816157A1 (Guangxi Normal University, priority 2019, dated 2021).

Each structure is given as a SMILES string.

Holding throughout (assay): MTT inhibition test against cell growth
Background: Tetrazolium dyes change colour on reduction, which living cells bring about.

For test [1], the system named is HeLa-229. It counts as cell-based, human. The following applies: cervical cancer cell HeLa-229, 48 hours. The protocol:
(§1) The test selected human ovarian cancer cell SK-OV-3, liver cancer cell Hep-G2, gastric cancer cell MGC-803, bladder cancer cell T-24, cervical cancer cell HeLa-229, human large cell lung cancer cell NCI-H460 and human normal liver cell HL-7702, and all the used cell lines were placed in an RPMI-1640 or high-sugar DMEM culture solution containing 1% penicillin-streptomycin and 10% newborn fetal calf serum and cultured in an incubator at 37 °C and 5% CO2. The growths of the cells were observed discontinuously by an inverted microscope, and the culture solution was replaced periodically or digestion subcultured with 0.25% trypsin according to actual situations. […] The compounds each were formulated into 20 µmol/L of a solution, DMSO is used as a cosolvent with a final concentration of ≤1%; at the concentration, the inhibition degrees of the compounds against the growth of tumor cells were tested. […] After the individual tumor cells were attached to the wall, the working solutions of the tested compounds were added, and each compound is provided with quintuple holes in parallel whilst a corresponding control group (with a culture solution only containing tumor cells and the same equivalent of DMSO but without the tested compounds) is provided. […] The following equitation was utilized: […]

The test system of test [2] is HepG-2. It counts as cell-based, human. The protocol:
as §1

For test [3], the system named is MGC-803. It counts as cell-based, human. The following applies: gastric cancer cell MGC-803, 48 hours. As to the method: as §1
In test [4] the test system is T-24. It counts as cell-based, human. The following applies: bladder cancer cell T-24, 48 hours. As to the method: as §1
For test [5], the system named is HL-7702. It counts as cell-based. As to the method:
as §1

The test system of test [6] is NCI-H460. It counts as cell-based. The following applies: human large cell lung cancer cell NCI-H460, 48 hours. The protocol: as §1
Setting [7] is: Homo sapiens, HepG2, liver cancer cell HepG-2, 48 hours.
Setting [8] is: L02, human normal liver cell HL-7702, 48 hours.

The term IC50 denotes the point on the concentration scale where inhibition reaches its midpoint. As to `O=Cc1c2ccccc2c(C=NNC2=NCCN2)c2ccccc12` [9-formyl-10-imidazolylanthrahydrazone], the IC50 in test [1] (Homo sapiens) is over 20 µM; in test [2] (setting [7]) it was 15.1 ± 1.69 µM; in test [3] (Homo sapiens), 18.8 ± 0.5 µM; in test [4] (Homo sapiens), 13.9 ± 1.46 µM; in test [5] (setting [8]), 16.4 ± 2.78 µM; in test [6], 16.1 ± 1.4 µM.

For the compound `N.N.[Cl][Pt][Cl]` [cisplatin], the concentration for half-maximal inhibition (IC50) was 13.2 ± 2.74 µM in test [1]; 18.6 ± 0.78 µM in test [2] (liver cancer cell HepG-2, 48 hours); 17.8 ± 2.5 µM in test [3]; 14.8 ± 2.74 µM in test [4]; 12.7 ± 1.27 µM in test [5] (human normal liver cell HL-7702, 48 hours); 18.3 ± 1.02 µM in test [6].

Consider `O=S(=O)(O)c1ccc(N=Cc2c3ccccc3c(C=NNC3=NCCN3)c3ccccc23)cc1` [9-benzenesulfonic acid-10-imidazolylanthrahydrazone], for which the half-inhibitory concentration (IC50) in test [1] (Homo sapiens) was determined as 10.5 ± 1.52 µM; in test [2] (setting [7]), 12.7 ± 1.56 µM; in test [3] (Homo sapiens) it was 9.48 ± 0.68 µM; in test [4] (Homo sapiens), 10.7 ± 0.56 µM; in test [5] (setting [8]), 11.3 ± 0.71 µM; in test [6], 14.5 ± 1.42 µM.
